How the values were obtained:
Assay type in all cases: functional
[1] = tested on: CCRF-CEM; assay: Antiproliferative activity against human CCRF-CEM cells assessed as inhibition of cell growth at 10 uM measured after 48 hrs by SRB assay relative to control; details: read-out: GI
[2] = tested on: HL-60(TB); assay: Antiproliferative activity against human HL-60(TB) cells assessed as inhibition of cell growth at 10 uM measured after 48 hrs by SRB assay relative to control; details: HL-60, 48 h, read-out: GI
[3] = tested on: NCI-H226; assay: Antiproliferative activity against human NCI-H226 cells assessed as inhibition of cell growth at 10 uM measured after 48 hrs by SRB assay relative to control; details: NCI-H226, 48 h, read-out: GI
[4] = tested on: HCT-116; assay: Antiproliferative activity against human HCT116 cells assessed as inhibition of cell growth at 10 uM measured after 48 hrs by SRB assay relative to control; details: HCT-116, 48 h, read-out: GI
[5] = tested on: HCT-15; assay: Antiproliferative activity against human HCT15 cells assessed as inhibition of cell growth at 10 uM measured after 48 hrs by SRB assay relative to control; details: HCT-15, 48 h, read-out: GI
[6] = tested on: KM12; assay: Antiproliferative activity against human KM12 cells assessed as inhibition of cell growth at 10 uM measured after 48 hrs by SRB assay relative to control; details: KM12, 48 h, read-out: GI
[7] = tested on: SW-620; assay: Antiproliferative activity against human SW620 cells assessed as inhibition of cell growth at 10 uM measured after 48 hrs by SRB assay relative to control; details: SW-620, 48 h, read-out: GI
[8] = tested on: SNB-75; assay: Antiproliferative activity against human SNB75 cells assessed as inhibition of cell growth at 10 uM measured after 48 hrs by SRB assay relative to control; details: SNB-75, 48 h, read-out: GI
[9] = tested on: M14; assay: Antiproliferative activity against human M14 cells assessed as inhibition of cell growth at 10 uM measured after 48 hrs by SRB assay relative to control; details: M14, 48 h, read-out: GI
[10] = tested on: OVCAR-3; assay: Antiproliferative activity against human OVCAR3 cells assessed as inhibition of cell growth at 10 uM measured after 48 hrs by SRB assay relative to control; details: OVCAR-3, 48 h, read-out: GI
[11] = tested on: NCI/ADR-RES; assay: Antiproliferative activity against human NCI-ADR-RES cells assessed as inhibition of cell growth at 10 uM measured after 48 hrs by SRB assay relative to control; details: read-out: GI
[12] = tested on: A498; assay: Antiproliferative activity against human A498 cells assessed as inhibition of cell growth at 10 uM measured after 48 hrs by SRB assay relative to control; details: A498, 48 h, read-out: GI
[13] = tested on: CAKI-1; assay: Antiproliferative activity against human CAKI-1 cells assessed as inhibition of cell growth at 10 uM measured after 48 hrs by SRB assay relative to control; details: CAKI-1, 48 h, read-out: GI
[14] = tested on: RXF 393; assay: Antiproliferative activity against human RXF393 cells assessed as inhibition of cell growth at 10 uM measured after 48 hrs by SRB assay relative to control; details: RXF 393, 48 h, read-out: GI
[15] = tested on: PC-3; assay: Antiproliferative activity against human PC3 cells assessed as inhibition of cell growth at 10 uM measured after 48 hrs by SRB assay relative to control; details: PC-3, 48 h, read-out: GI
[16] = tested on: DU-145; assay: Antiproliferative activity against human DU145 cells assessed as inhibition of cell growth at 10 uM measured after 48 hrs by SRB assay relative to control; details: DU-145, 48 h, read-out: GI
[17] = tested on: A549; assay: Antiproliferative activity against human A549 cells assessed as inhibition of cell growth measured after 48 hrs by SRB assay; details: A549, 48 h
[18] = tested on: HOP-62; assay: Antiproliferative activity against human HOP62 cells assessed as inhibition of cell growth measured after 48 hrs by SRB assay; details: HOP-62, 48 h
[19] = tested on: NCI-H522; assay: Antiproliferative activity against human NCI-H522 cells assessed as inhibition of cell growth measured after 48 hrs by SRB assay; details: NCI-H522, 48 h
[20] = tested on: SW-620; assay: Antiproliferative activity against human SW620 cells assessed as inhibition of cell growth measured after 48 hrs by SRB assay; details: SW-620, 48 h
[21] = tested on: SF-539; assay: Antiproliferative activity against human SF539 cells assessed as inhibition of cell growth measured after 48 hrs by SRB assay; details: SF-539, 48 h
[22] = tested on: SNB-75; assay: Antiproliferative activity against human SNB75 cells assessed as inhibition of cell growth measured after 48 hrs by SRB assay; details: SNB-75, 48 h
[23] = tested on: LOX IMVI; assay: Antiproliferative activity against human LOXIMVI cells assessed as inhibition of cell growth measured after 48 hrs by SRB assay
[24] = tested on: M14; assay: Antiproliferative activity against human M14 cells assessed as inhibition of cell growth measured after 48 hrs by SRB assay; details: M14, 48 h
[25] = tested on: MDA-MB-435; assay: Antiproliferative activity against human MDA-MB-435 cells assessed as inhibition of cell growth measured after 48 hrs by SRB assay; details: MDA-MB-435, 48 h
[26] = tested on: UACC-62; assay: Antiproliferative activity against human UACC62 cells assessed as inhibition of cell growth measured after 48 hrs by SRB assay; details: UACC-62, 48 h
[27] = tested on: IGROV-1; assay: Antiproliferative activity against human IGROV1 cells assessed as inhibition of cell growth measured after 48 hrs by SRB assay; details: IGROV-1, 48 h
[28] = tested on: OVCAR-8; assay: Antiproliferative activity against human OVCAR8 cells assessed as inhibition of cell growth measured after 48 hrs by SRB assay; details: OVCAR-8, 48 h
[29] = tested on: 786-0; assay: Antiproliferative activity against human 786-0 cells assessed as inhibition of cell growth measured after 48 hrs by SRB assay; details: 786-0, 48 h
[30] = tested on: ACHN; assay: Antiproliferative activity against human ACHN cells assessed as inhibition of cell growth measured after 48 hrs by SRB assay
[31] = tested on: CAKI-1; assay: Antiproliferative activity against human CAKI-1 cells assessed as inhibition of cell growth measured after 48 hrs by SRB assay; details: CAKI-1, 48 h
[32] = tested on: RXF 393; assay: Antiproliferative activity against human RXF393 cells assessed as inhibition of cell growth measured after 48 hrs by SRB assay; details: RXF 393, 48 h
[33] = tested on: UO-31; assay: Antiproliferative activity against human UO31 cells assessed as inhibition of cell growth measured after 48 hrs by SRB assay; details: UO-31, 48 h
[34] = tested on: MCF7; assay: Antiproliferative activity against human MCF7 cells assessed as inhibition of cell growth measured after 48 hrs by SRB assay; details: MCF7, 48 h
[35] = tested on: SK-MEL-28; assay: Antiproliferative activity against human SK-MEL-28 cells assessed as inhibition of cell growth measured after 48 hrs by SRB assay; details: SK-MEL-28, 48 h
[36] = tested on: SK-OV-3; assay: Antiproliferative activity against human SKOV3 cells assessed as inhibition of cell growth measured after 48 hrs by SRB assay; details: SK-OV-3, 48 h

Row | Compound | inhibition of growth at 10 µM [2] [%] | inhibition of growth at 10 µM [3] [%] | inhibition of growth at 10 µM [4] [%] | inhibition of growth at 10 µM [5] [%] | inhibition of growth at 10 µM [6] [%] | inhibition of growth at 10 µM [7] [%] | inhibition of growth at 10 µM [8] [%] | inhibition of growth at 10 µM [9] [%] | inhibition of growth at 10 µM [10] [%] | inhibition of growth at 10 µM [11] [%] | inhibition of growth at 10 µM [13] [%] | inhibition of growth at 10 µM [14] [%] | inhibition of growth at 10 µM [15] [%] | inhibition of growth at 10 µM [16] [%] | GI50 [17] [nM] | GI50 [18] [nM] | GI50 [19] [nM] | GI50 [20] [nM] | GI50 [21] [nM] | GI50 [22] [nM] | other results
1 | COc1ccc2nc3c(cc2c1)C(=O)CC(C(F)(F)F)C3 (stereo not drawn) | 115 | 60.2 | 88.1 | 62.2 | 88.4 | 58.5 | 92.1 | 91.3 | 94.7 | 81.1 | 63 | 102 | 67 | 95.7 | 3030 | 3610 | 582 | 3450 | 1890 | 2160 | inhibition of growth at 10 µM [1]: 90.1%; inhibition of growth at 10 µM [12]: 108%; GI50 [23]: 3080 nM; GI50 [24]: 238 nM; GI50 [25]: 143 nM; GI50 [26]: 697 nM; GI50 [27]: 769 nM; GI50 [28]: 2040 nM; GI50 [29]: 6570 nM; GI50 [30]: 768 nM; GI50 [31]: 690 nM; GI50 [32]: 562 nM; GI50 [33]: 2000 nM; GI50 [34]: 3420 nM
2 | O=C1CC(c2ccccc2)Cc2nc3c(Br)cc(Br)cc3cc21 (stereo not drawn) | 95.4 | 85.9 | 93.8 | 89.7 | 98 | 77.6 | 64.8 | 94.7 | 140 | 113 | 98.8 | 70 | 77.4 | 99 | 79.2 | 180 | 137 | 83.9 | 192 | 199 | GI50 [23]: 758 nM; GI50 [24]: 284 nM; GI50 [25]: 211 nM; GI50 [35]: 478 nM; GI50 [26]: 338 nM; GI50 [27]: 125 nM; GI50 [28]: 507 nM; GI50 [36]: 102 nM; GI50 [29]: 813 nM; GI50 [30]: 595 nM; GI50 [31]: 145 nM; GI50 [32]: 91.6 nM; GI50 [33]: 79.5 nM; GI50 [34]: 382 nM

Source: ChEMBL document CHEMBL4627344, “Synthesis, biological evaluation and virtual screening of some acridone derivatives as potential anticancer agents” (2020)
